≈ marks a conversion by molar mass, not a printed value. Where a SMILES comes first, the peptide text is derived from it. [ ]: non-standard residue; d: D form. The star is where a group is joined. Heptanoyl = CCCCCCC(=O)*; Pentanoyl = CCCCC(=O)*
Assays:
P. aeruginosa ATCC 27853 = assay: Broth microdilution MIC, reference strain; format: cell-based, Pseudomonas aeruginosa; conditions: for MIC: Pseudomonas aeruginosa, ATCC27853, antibiotics, 16–18 h at 37 °C, read-out: Antimicrobial activity (MIC) P. aeruginosa ATCC 27853
Protocol: (§1) Staphylococcus aureus ATCC 25923, Pseudomonas aeruginosa ATCC 27853 and Klebsiella pneumoniae ATCC BAA-1705 (carbapenemase producer) were obtained from the American Type Culture Collection (Rockville, MD).
(§2) Identification was performed by sub-culturing on Tryptic Soy Agar (TSA, Becton Dickinson) and by biochemical characterisation using the Vitek II system (Biomerieux). The antimicrobial susceptibility testing of all isolates was determined using Vitek II system and results were interpreted according to European Committee on Antimicrobial Susceptibility Testing (EUCAST version 9.0, 2019). P. aeruginosa was cultured in Brain Heart Infusion broth (BHI, OXOID), S. aureus and K. pneumoniae were cultured in Tryptic Soya broth (TSB, OXOID), under aerobic conditions at 37 °C, for 24 h on an orbital shaker at 200 rpm.
(§3) Minimal inhibitory concentrations (MIC) of all the peptides were determined in Mueller–Hinton medium by the broth microdilution assay, following the procedure already described[22]^,[34]. The compounds were added to bacterial suspension in each well yielding a final cell concentration of 1 × 10^6 CFU/ml and a final compound concentration ranging from 0.78 to 100 µM. Negative control wells were set to contain bacteria in Mueller–Hinton broth plus the amount of vehicle (ethanol) used to dilute each compound. Positive controls included vancomycin (2 µg/ml), tobramycin (4 µg/ml), gentamycin (4 µg/ml), and imipenem (8 µg/ml).

[1] = system: K. pneumoniae ATCC BAA-1705; assay: Broth microdilution MIC, reference strain; format: cell-based, Klebsiella pneumoniae; conditions: for MIC: Klebsiella pneumoniae, ATCCBAA1705, antibiotics, 16–18 h at 37 °C, read-out: Antimicrobial activity (MIC) K. pneumoniae ATCC BAA-1705
Protocol: as §1, §2, §3

S. aureus ATCC 25923 = assay: microbe, parasite or virus in culture; conditions: for MIC: Staphylococcus aureus, ATCC25923, read-out: Antimicrobial activity (MIC) S. aureus ATCC 25923
Protocol: as §1, §2, §3

[2] = Critical aggregation concentration, Nile red fluorescence; format: physicochemical; conditions: aqueous solution, pH 7, Nile red, 1–200 µM peptide
Protocol: The solvatochromic fluorescent probe Nile red is widely used to determine the CAC of self-assembling peptides. […] Since Nile red is poorly soluble in water, there is a large preference to partition aggregates, which offer hydrophobic binding sites. Initially, 1 mM methanolic Nile red was prepared. Then, the methanolic Nile red was diluted with water in order to have a final concentration of 500 nM (solution A). The peptides 1B, 2B, 3B, C, were prepared as follows[39]: peptide stock solutions (0.4 mM) were prepared by dissolving the single peptides in water (1B, C) or tetrahydrofuran (3B, 2B) and sonicating for 15 min. Different aliquots were taken to prepare solutions of each peptide at different concentrations (1, 5, 10, 15, 20, 30, 50, 100 and 200 µM). Then, all solutions were diluted with water, sonicated for 15 min and freeze-dried. Finally, the peptide powders were dissolved with the right volume of solution A and allowed to stand in the dark place for 1 h before measurement. Emission spectra for each solution were measured by a Cary Eclipse Varian spectrometer. Spectra were taken between 570 and 700 nm at a slit width of 5 nm, using an excitation wavelength of 550 nm and a 10 nm slit width. The measurements were performed in triplicate. The data were analysed by plotting the maximum emission fluorescence corresponding wavelength (y) as a function of peptide concentration (x) and fitting with the sigmoidal Boltzmann equation: y=A1+A2/1+e^(x−x0/Δx)+A2 where the variables A1 and A2 correspond to the upper and lower limits of the sigmoid, x0 is the inflection point of the sigmoid and Δx is the parameter, which characterises the steepness of the function. The sigmoidal plot allows calculating the CAC value at x0.

ANTS/DPX leakage assay = conditions: ANTS/DPX-loaded LUVs, Gram-positive and Gram-negative mimicking
Protocol: Large unilamellar vesicles (LUVs) and small unilamellar vesicles (SUVs) consisting of DOPG/CL (58/42 ratio in moles) and DOPG/DOPE/CL (63/23/12 ratio in moles), mimic the Gram-positive membrane and Gram-negative membrane, respectively. LUVs were prepared using the extrusion method as previously described. In particular, first lipid films were prepared by dissolving an appropriate amount of lipids in chloroform and fluorescent probes were added when necessary, then dried under a nitrogen gas stream and freeze-dried overnight. In all experiments, we used a final lipid concentration of 0.1 mM. For fluorescence experiments, buffer was added to dry lipid films and vortexed for 1 h; then the lipid suspension was freeze-thawed 6 times and extruded 10 times through polycarbonate membranes with 0.1 µm diameter pores to obtain LUVs. For circular dichroism measurements, peptide samples in SUVs were prepared as reported in the following protocol. Lipids were dissolved in chloroform and added to an equal volume of peptide solution dissolved in TFE containing appropriate peptide concentration. The samples were vortexed and lyophilised overnight. The dry samples were rehydrated with phosphate buffer 5 mM, pH 7.4 for 1 h and sonicated for 30 min.
The ANTS/DPX leakage assay was used to measure the ability of peptide to permeabilise and induce leakage of encapsulated dyes. After lipid films were prepared as previously described, ANTS (12.5 mM) and DPX (45 mM) were dissolved in 2 ml water, were added to lipid films and then lyophilised overnight. The lipid films with encapsulated ANTS and DPX were hydrated with PBS 1X buffer, vortexed for 1 h and then treated to obtain LUVs. The non-encapsulated ANTS and DPX were removed by gel filtration using a Sephadex G-50 column (1.5 cm × 10 cm) at room temperature. To start up the leakage experiment, a 2 mM peptide stock solution was prepared and LUVs were titrated with the peptide. Samples were excited at 385 nm (slit width, 5 nm) and fluorescence emission was recorded at 512 nm (slit width, 5 nm). After the addition of peptide, we evaluated leakage of encapsulated ANTS through a change in fluorescence spectra of ANTS and DPX. In particular, leakage is associated to an increase in ANTS fluorescence at 512 nm. Complete release of ANTS was obtained by using 0.1% Triton X, which caused the total destruction of liposomes. The percentage of leakage was calculated as % leakage =(Fi−F0)/(Ft−F0), where F0 represents the fluorescence of intact LUVs before the addition of peptide, and Fi and Ft denote the intensities of the fluorescence achieved after peptide and Triton-X treatment, respectively.

sheep red blood cells = format: cell-based; conditions: red cells of sheep, 24 h
Protocol: Sheep red blood cells were purchased from OXOID, SR0051D.
The haemolytic assay was conducted following the procedure described. […] Controls were erythrocytes treated with vehicle (water).

HaCaT cells = conditions: 24 h, at 6.25 µM
Protocol: The human immortalised keratinocytes HaCaT cells (AddexBio, San Diego, CA, USA) were cultured in Dulbecco’s modified Eagle’s medium containing 4 mM glutamine (DMEMg), supplemented with 10% heat-inactivated foetal bovine serum (FBS) and 0.1 mg/ml of penicillin and streptomycin, at 37 °C and 5% CO2, in 25 cm^2 or 75 cm^2 flasks[33].
The colorimetric MTT assay was carried out to measure cellular metabolic activity in terms of cell viability[33]^,[36]. Viable cells are able to reduce, by active mitochondrial dehydrogenases, the yellow salt MTT to purple formazan crystals. Briefly, 4 × 10^4 HaCaT cells, suspended in DMEMg supplemented with 2% FBS, were plated in each well of a 96-well microtiter plate. After overnight incubation, at 37 °C in a 5% CO2 atmosphere, keratinocytes were treated for 24 h with fresh serum-free medium containing the peptides 3B and C at concentrations ranging from 3.12 µM to 25 µM. Afterward, the culture medium was replaced with Hank’s buffer supplemented with 0.5 mg/ml MTT and the plate was incubated at 37 °C and 5% CO2 for 4 h. At the end, acidified isopropanol was employed to dissolve the formazan crystals. Cell viability was calculated, with respect to cells not treated with peptide, by absorbance measurements at 570 nm using a microplate reader (Infinite M200; Tecan, Salzburg, Austria)[33]. […]

KpCR1 = assay: microbe, parasite or virus in culture; conditions: Klebsiella pneumoniae, read-out: Antimicrobial activity (MIC) KpCR1
Protocol: (§4) Clinical strains of P. aeruginosa (Pa1, Pa2 and Pa3), K. pneumoniae (KpCR1, KpCR2 and KpCR3), and S. aureus (Sa1, Sa2 and Sa3) were isolated from bloodstream or pulmonary infections, and belong to a collection of bacterial strains established between 2010 and 2018 at the Department of Molecular Medicine and Medical Biotechnologies (University Federico II, Naples) for research use.
as §2, §3

KpCR2 = assay: microbe, parasite or virus in culture; conditions: Klebsiella pneumoniae, read-out: Antimicrobial activity (MIC) KpCR2
Protocol: as §4, §2, §3

KpCR3 = assay: microbe, parasite or virus in culture; conditions: Klebsiella pneumoniae, read-out: Antimicrobial activity (MIC) KpCR3
Protocol: as §4, §2, §3

Pa1 = assay: microbe, parasite or virus in culture; conditions: Pseudomonas aeruginosa, PA1, read-out: Antimicrobial activity (MIC) Pa1
Protocol: as §4, §2, §3

Pa2 = assay: microbe, parasite or virus in culture; conditions: Pseudomonas aeruginosa, read-out: Antimicrobial activity (MIC) Pa2
Protocol: as §4, §2, §3

Pa3 = assay: microbe, parasite or virus in culture; conditions: Pseudomonas aeruginosa, read-out: Antimicrobial activity (MIC) Pa3
Protocol: as §4, §2, §3

Sa1 = assay: microbe, parasite or virus in culture; conditions: Staphylococcus aureus, MRSA, read-out: Antimicrobial activity (MIC) Sa1
Protocol: as §4, §2, §3

Sa2 = assay: microbe, parasite or virus in culture; conditions: Staphylococcus aureus, MRSA, read-out: Antimicrobial activity (MIC) Sa2
Protocol: as §4, §2, §3

Sa3 = assay: microbe, parasite or virus in culture; conditions: Staphylococcus aureus, MRSA, read-out: Antimicrobial activity (MIC) Sa3
Protocol: as §4, §2, §3

MIC (P. aeruginosa ATCC 27853) [µg/mL] | MIC [1] [µg/mL] | MIC (S. aureus ATCC 25923) [µg/mL] | MIC (KpCR1) [µg/mL] | MIC (KpCR2) [µg/mL] | MIC (KpCR3) [µg/mL] | MIC (Pa1) [µg/mL] | MIC (Pa2) [µg/mL] | MIC (Pa3) [µg/mL] | MIC (Sa1) [µg/mL] | MIC (Sa2) [µg/mL] | MIC (Sa3) [µg/mL] | SMILES | Antimicrobial activity (MIC) P. aeruginosa ATCC 27853 (P. aeruginosa ATCC 27853) [µM] | Antimicrobial activity (MIC) K. pneumoniae ATCC BAA-1705 [1] [µM] | Antimicrobial activity (MIC) S. aureus ATCC 25923 (S. aureus ATCC 25923) [µM] | CAC (critical aggregation concentration) [2] [µM] | membrane leakage ability (in words) (ANTS/DPX leakage assay) | haemolytic potency (sheep red blood cells) | reduction in cell viability (HaCaT cells)
– | – | – | – | – | – | – | – | – | – | – | – | CCCCC(=O)N[C@@H](Cc1ccccc1)C(=O)N[C@H](C(=O)N1CCC[C@H]1C(=O)N[C@@H](Cc1c[nH]c2ccccc12)C(=O)N[C@@H](Cc1ccccc1)C(=O)N[C@@H](CO)C(=O)N[C@@H](CCCCN)C(=O)N[C@@H](Cc1ccccc1)C(=O)N[C@H](CC(C)C)C(=O)N[C@H](CCCCN)C(=O)N[C@@H](CCCNC(=N)N)C(=O)N[C@H](C(=O)N[C@@H](CC(C)C)C(N)=O)[C@@H](C)CC)C(C)C [Compound 2B, CH3(CH2)3CO-Phe-Val-Pro-Trp-Phe-Ser-Lys-Phe-DLeu-DLys-Arg-Ile-Leu-NH2] (Pentanoyl-FVPWFSKF[dL][dK]RIL-NH2) | 50 | 50 | 12.5 | 20.9 | highest leakage ability | – | –
– | – | – | – | – | – | – | – | – | – | – | – | CCCCCCC(=O)N[C@@H](Cc1ccccc1)C(=O)N[C@H](C(=O)N1CCC[C@H]1C(=O)N[C@@H](Cc1c[nH]c2ccccc12)C(=O)N[C@@H](Cc1ccccc1)C(=O)N[C@@H](CO)C(=O)N[C@@H](CCCCN)C(=O)N[C@@H](Cc1ccccc1)C(=O)N[C@H](CC(C)C)C(=O)N[C@H](CCCCN)C(=O)N[C@@H](CCCNC(=N)N)C(=O)N[C@H](C(=O)N[C@@H](CC(C)C)C(N)=O)[C@@H](C)CC)C(C)C [Compound 3B, CH3(CH2)5CO-Phe-Val-Pro-Trp-Phe-Ser-Lys-Phe-DLeu-DLys-Arg-Ile-Leu-NH2] (Heptanoyl-FVPWFSKF[dL][dK]RIL-NH2) | 25 | 50 | 3.12 | 9.33 | highest leakage ability | over 50% | about 50%
4 (≈ 8.38 µM) | 4 (≈ 8.38 µM) | 1 (≈ 2.09 µM) | 1 (≈ 2.09 µM) | > 8 | 1 (≈ 2.09 µM) | > 4 | > 4 | > 4 | < 1 | < 1 | < 1 | CNC(C)C1CCC(N)C(OC2C(N)CC(N)C(OC3OCC(C)(O)C(NC)C3O)C2O)O1 (stereo not shown) [Gentamicin] | – | – | – | – | – | – | –
4 (≈ 13.4 µM) | > 8 | 0.5 (≈ 1.67 µM) | > 8 | > 8 | > 8 | > 4 | > 4 | > 4 | 8 (≈ 26.7 µM) | > 8 | > 8 | C[C@@H](O)[C@H]1C(=O)N2C(C(=O)O)=C(SCCN=CN)C[C@H]12 [Imipenem] | – | – | – | – | – | – | –
4 (≈ 8.56 µM) | > 4 | 1 (≈ 2.14 µM) | 2 (≈ 4.28 µM) | 2 (≈ 4.28 µM) | > 4 | 4 (≈ 8.56 µM) | 4 (≈ 8.56 µM) | 4 (≈ 8.56 µM) | 1 (≈ 2.14 µM) | < 1 | 1 (≈ 2.14 µM) | NC[C@H]1O[C@H](O[C@H]2[C@H](O)[C@@H](O[C@H]3O[C@H](CO)[C@@H](O)[C@H](N)[C@H]3O)[C@H](N)C[C@@H]2N)[C@H](N)C[C@@H]1O [Tobramycin] | – | – | – | – | – | – | –

SMILES | MIC (P. aeruginosa ATCC 27853) [µg/mL] | MIC [1] [µg/mL] | MIC (S. aureus ATCC 25923) [µg/mL] | MIC (KpCR1) [µg/mL] | MIC (KpCR2) [µg/mL] | MIC (KpCR3) [µg/mL] | MIC (Pa1) [µg/mL] | MIC (Pa2) [µg/mL] | MIC (Pa3) [µg/mL] | MIC (Sa1) [µg/mL] | MIC (Sa2) [µg/mL] | MIC (Sa3) [µg/mL] | Antimicrobial activity (MIC) P. aeruginosa ATCC 27853 (P. aeruginosa ATCC 27853) [µM] | Antimicrobial activity (MIC) K. pneumoniae ATCC BAA-1705 [1] [µM] | Antimicrobial activity (MIC) S. aureus ATCC 25923 (S. aureus ATCC 25923) [µM] | CAC (critical aggregation concentration) [2] [µM] | membrane leakage ability (in words) (ANTS/DPX leakage assay) | haemolytic potency (sheep red blood cells) | reduction in cell viability (HaCaT cells)
CN[C@H](CC(C)C)C(=O)N[C@H]1C(=O)N[C@@H](CC(N)=O)C(=O)N[C@H]2C(=O)N[C@H]3C(=O)N[C@H](C(=O)N[C@H](C(=O)O)c4cc(O)cc(O)c4-c4cc3ccc4O)[C@H](O)c3ccc(c(Cl)c3)Oc3cc2cc(c3O[C@@H]2O[C@H](CO)[C@@H](O)[C@H](O)[C@H]2O[C@H]2C[C@](C)(N)[C@H](O)[C@H](C)O2)Oc2ccc(cc2Cl)[C@H]1O [Vancomycin] | – | – | 2 (≈ 1.38 µM) | – | – | – | – | – | – | 2 (≈ 1.38 µM) | 1 (≈ 0.69 µM) | 2 (≈ 1.38 µM) | – | – | – | – | – | – | –
